Results reported in US20110269755A1, “COMPOSITIONS AND METHODS FOR TREATING VASCULAR, AUTOIMMUNE, AND INFLAMMATORY DISEASES” (Aspreva International Ltd., priority 2006, published 2011).
Values after ≈ are worked out from the molar mass of the structure shown. “Also recorded” adds a separate entry of the source.

Experiments:
[1] = following oral or intravenous administration; cited from earlier work
[2] = cited from earlier work
Ldlr−/− mice [3] = experiment: Serum/plasma lipid levels in Ldlr−/− mice on Western-type diet, MMF alone; type: in vivo
Description: (§1) Additional secondary endpoints examined were plasma levels of cholesterol, HDL cholesterol, triglycerides, and phospholipids.

allograft survival = conditions: mice; cited from earlier work
Ldlr−/− mice [4] = experiment: Atherosclerosis in Ldlr−/− mice on Western-type diet, plaque area at the aortic root, MMF alone; type: in vivo; conditions: for reduction of atherosclerosis (AS), percentage of aortic sinus occluded by plaque: 12 weeks
Description: as §1

[5] = system: antibody response to sheep red blood cells; conditions: mice; cited from earlier work
[6] = system: endothelial nitric oxide synthase (eNOS); conditions: in vitro, cited from earlier work

COc1c(C)c2c(c(O)c1C/C=C(\C)CCC(=O)OCCN1CCOCC1)C(=O)OC2 [MMF, morpholinoethyl E-6-(1,3-dihydro-4-hydroxy-6-methoxy-7-methyl-3-oxo-5-isobenzofuranyl)-4-methyl-4-hexenoate]
metabolism to the active metabolite MPA [1]: rapidly and completely metabolized | solubility ([2]; in 5% dextrose solution): 65.8 mg/mL (≈ 152 mM) | solubility in water ([2]; water): insoluble | HDL cholesterol levels (Ldlr−/− mice [3]; Ldlr−/− mice): no effect | total cholesterol levels (Ldlr−/− mice [3]; Ldlr−/− mice): no effect | serum cholesterol levels (Ldlr−/− mice [3]; male Ldlr−/− mice): did not lower | serum phospholipid levels (Ldlr−/− mice [3]; male Ldlr−/− mice): lower; also recorded: decreases | serum triglyceride levels (Ldlr−/− mice [3]; male Ldlr−/− mice): lower; also recorded: decreases | effective dose for in vivo prolongation of allograft survival (allograft survival): about 80 mg/kg/day | reduction of atherosclerosis (AS), percentage of aortic sinus occluded by plaque (Ldlr−/− mice [4]; MMF 6 mg/kg/day in diet, male Ldlr−/− mice): 18% | reduction of atherosclerosis (AS), percentage of aortic sinus occluded by plaque (Ldlr−/− mice [4]; MMF 15 mg/kg/day in diet, male Ldlr−/− mice): 30% | reduction of atherosclerosis (AS), percentage of aortic sinus occluded by plaque (Ldlr−/− mice [4]; MMF 30 mg/kg/day in diet, male Ldlr−/− mice): 28% | reduction of atherosclerosis (AS), percentage of aortic sinus occluded by plaque (Ldlr−/− mice [4]; MMF 100 mg/kg/day in diet, male Ldlr−/− mice): 64% | dose response of the reduction of atherosclerosis (Ldlr−/− mice [4]; MMF 6, 15, 30 and 100 mg/kg/day, male Ldlr−/− mice): dose-dependent | effect on atherosclerosis / atheromatous plaques (Ldlr−/− mice [4]; MMF alone, doses lower than used for preventing organ rejection, Ldlr−/− mice): reduce atherosclerosis; also recorded: reduction of atheromatous plaques

COc1c(C)c2c(c(O)c1C/C=C(\C)CCC(=O)O)C(=O)OC2 [MPA, mycophenolic acid]
ED50 for inhibiting the antibody reaction [5]: about 33 mg/kg/day | trend in aortic root lesions as a function of serum MPA levels (linear regression) (Ldlr−/− mice [4]; Ldlr−/− mice given MMF): statistically significant decreasing trend

CC[C@H](C)C(=O)O[C@H]1C[C@@H](C)C=C2C=C[C@H](C)[C@H](CC[C@@H]3C[C@@H](O)CC(=O)O3)[C@H]21 [lovastatin]
upregulation of eNOS expression ([6]; cholesterol clamped conditions): almost fourfold | downregulation of eNOS by oxidized LDL [6]: completely prevent
